Like-named read-outs stand apart in the source and are kept apart here.
Tests used:
[1] = test system: Escherichia coli expressing NDM-1 (CLB30016); type: cell-based; conditions: with imipenem 1 μg/ml; 95% inhibition of bacterial growth
In short: (§1)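 Each strain, diluted 1:100 from saline suspension into 1.1× CAMHB, was combined with imipenem held at 1 μg/ml and graded inhibitor. Growth after 22–24 h at 35 °C was measured by absorbance, and the lowest concentration achieving 95% inhibition defined MITC95.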

[2] = test system: Klebsiella pneumoniae expressing VIM-1 (IHMA599644); type: cell-based; conditions: with imipenem 1 μg/ml; 95% inhibition of bacterial growth
In short: as §1

[3] = test system: Serratia marcescens expressing IMP-1 (CL5741); type: cell-based; conditions: with imipenem 1 μg/ml; 95% inhibition of bacterial growth
In short: as §1

VIM-2 = VIM-2 (Escherichia coli, UniProt Q5U7L7); test: biochemical
[4] = test system: P. aeruginosa MB9798 (efflux+, IMP-1 plasmid); conditions: for MB9798 MITC95 P. aeruginosa uM Efflux WT: efflux + (MB9798) strain, imipenem at 2 μg/mL, in the presence of a class A, C, D serine β-lactamase inhibitor closely related to relebactam; for Efflux ratio: fold difference between efflux+ (MB9798) and efflux− (MB9799) strains
In short: (§2)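 PAO1-derived isogenic pair (oprD+, inducible AmpC), efflux+ MB5919 or efflux− MB5890 parent, carrying an electroporated IMP-1 plasmid from a clinical isolate. Microbroth MIC with fixed imipenem and/or ceftazidime (usually CLSI breakpoint) plus fixed class A/C inhibitor; MBL inhibitor serially titrated, concentration restoring susceptibility recorded.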

[5] = test system: P. aeruginosa MB9799 (efflux-, IMP-1 plasmid); type: cell-based, Pseudomonas aeruginosa; conditions: efflux − (MB9799) strain; imipenem at 2 μg/mL; in the presence of a class A, C, D serine β-lactamase inhibitor closely related to relebactam
In short: as §2

NDM-1 = NDM-1 (Klebsiella pneumoniae, UniProt C7C422); test: biochemical; type: biochemical; conditions: CCF2-FA fluorescence assay, 2 hours at 25° C.
NDM-1, sequence (C7C422 whole entry, looked up, species assumed): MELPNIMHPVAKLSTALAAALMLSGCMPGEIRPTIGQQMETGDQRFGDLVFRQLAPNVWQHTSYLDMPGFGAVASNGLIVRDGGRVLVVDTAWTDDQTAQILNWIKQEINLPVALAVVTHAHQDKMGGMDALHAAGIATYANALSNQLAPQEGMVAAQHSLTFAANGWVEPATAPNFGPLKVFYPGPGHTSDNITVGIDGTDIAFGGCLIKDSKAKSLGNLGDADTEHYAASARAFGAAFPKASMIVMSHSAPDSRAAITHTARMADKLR
In short: (§3)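 Each enzyme (final 1 pM NDM-1, 2 pM IMP-1, 30 pM VIM-1) was incubated with test inhibitor (20 μM to 0.00063 μM) and 1.25 μM CCF2-FA for 2 hours at 25° C in zinc-supplemented phosphate buffer, pH 7. Fluorescence at 460 nm was then read and IC50 fitted with four parameters.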

IMP-1 = IMP-1 (Serratia marcescens, UniProt P52699); test: biochemical; conditions: CCF2-FA fluorescence assay, 2 hours at 25° C.; read-out: IMP1 IC50
IMP-1, sequence (P52699 whole entry, looked up, species assumed): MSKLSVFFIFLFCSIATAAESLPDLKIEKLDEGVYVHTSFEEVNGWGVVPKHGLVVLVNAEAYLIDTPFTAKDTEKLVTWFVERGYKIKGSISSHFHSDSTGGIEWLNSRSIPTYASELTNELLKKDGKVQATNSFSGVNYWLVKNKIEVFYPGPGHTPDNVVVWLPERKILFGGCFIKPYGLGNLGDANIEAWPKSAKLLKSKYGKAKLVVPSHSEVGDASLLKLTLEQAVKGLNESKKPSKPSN
In short: as §3

VIM-1 = VIM-1 (Pseudomonas aeruginosa (strain ATCC 15692 / DSM 22644 / CIP 104116 / JCM 14847 / LMG 12228 / 1C / PRS 101 / PAO1), UniProt A0A0F7KYQ8); test: biochemical; conditions: CCF2-FA fluorescence assay, 2 hours at 25° C.; read-out: VIM1 IC50
In short: as §3

[6] = CCF2-FA fluorescence assay, read-out: VIM2 IC50

Structure (SMILES)	CLB30016 E. coli MITC95 NDM [1] [µM]	IHMA599644 K. pneumoniae MITC95 VIM [2] [µM]	CL5741 S. marcescens MITC95 IMP [3] [µM]	IC50 (VIM-2; [6]) [nM]	MB9798 MITC95 P. aeruginosa uM Efflux WT [4] [µM]	Efflux ratio [4]	MB9799 MITC95 P. aeruginosa uM Efflux Mutant [5] [µM]	IC50 (NDM-1) [nM]	IC50 (IMP-1) [nM]	IC50 (VIM-1) [nM]	IC50 (VIM-2; VIM2 IC50, CCF2-FA fluorescence assay) [nM]
NS(=O)(=O)c1c(S(=O)(=O)N[C@@H]2CCNC2)ccc(N2CCN(CCO)CC2)c1-c1nnn[nH]1 [Example 102, 4-[4-(2-hydroxyethyl)piperazin-1-yl]-N1-[(3R)-pyrrolidin-3-yl]-3-(1H-tetrazol-5-yl)benzene-1,2-disulfonamide]	0.20	3.13	0.20	7.94	3.13	2.00	1.56	1.35	2.07	3.06	–
C[C@H](CN)NS(=O)(=O)c1ccc(N2CCC(CN)CC2)c(-c2nnn[nH]2)c1S(N)(=O)=O [Example 36, (R)-4-(4-(aminomethyl)piperidin-1-yl)-N1-(1-aminopropan-2-yl)-3-(1H-tetrazol-5-yl)benzene-1,2-disulfonamide]	0.65	1.30	1.30	2.6	0.91	1.40	0.65	0.45	1.84	0.1	–
CN(C)[C@H]1CCN(c2ccc(S(=O)(=O)N[C@@H]3CCNC3)c(S(N)(=O)=O)c2-c2nnn[nH]2)C1 [Example 67, 4-[(3S)-3-(dimethylamino)pyrrolidin-1-yl]-N1-[(3R)-pyrrolidin-3-yl]-3-(1H-tetrazol-5-yl)benzene-1,2-disulfonamide]	1.56	1.56	3.13	18.5	12.50	8.00	1.56	85	60.7	4.32	–
NC[C@@H](O)CNS(=O)(=O)c1ccc(N2CCC(CC(N)=O)CC2)c(-c2nn[nH]n2)c1S(N)(=O)=O [Example 25, (R)-2-(1-(4-(N-(3-amino-2-hydroxypropyl)sulfamoyl)-3-sulfamoyl-2-(2H-tetrazol-5-yl)phenyl)piperidin-4-yl)acetamide]	3.13	6.25	6.25	0.74	3.13	1.00	3.13	0.54	0.39	0.17	–
NC[C@@H](O)CNS(=O)(=O)c1ccc(N2C[C@@H]3[C@@H](CN)[C@@H]3C2)c(-c2nn[nH]n2)c1S(N)(=O)=O [Example 11]	0.78	0.78	1.56	24.7	6.25	4.00	1.56	8.96	35.5	2.03	–
NC[C@@H](O)CNS(=O)(=O)c1ccc(N[C@H]2C[C@H](N)C2)c(-c2nnn[nH]2)c1S(N)(=O)=O [Example 192, (R)—N1-(3-amino-2-hydroxypropyl)-4-((3-aminocyclobutyl)amino)-3-(1H-tetrazol-5-yl)benzene-1,2-disulfonamide]	1.56	6.25	3.13	–	6.25	2.00	3.13	66.3	97	67.5	200
NS(=O)(=O)c1c(S(=O)(=O)N[C@@H]2CCNC2)ccc(N2CCN(CCO)CC2)c1-c1nn[nH]n1 [Example 162, (R)-4-(4-(2-hydroxyethyl)piperazin-1-yl)-N1-(pyrrolidin-3-yl)-3-(2H-tetrazol-5-yl)benzene-1,2-disulfonamide]	0.29	1.95	0.20	6.33	2.34	–	1.17	1.2	2.17	2.45	–
NC[C@@H](O)CNS(=O)(=O)c1ccc(N2CC[C@@H](N)[C@@H](F)C2)c(-c2nn[nH]n2)c1S(N)(=O)=O [Example 207, N1-((R)-3-amino-2-hydroxypropyl)-4-((3S,4R)-4-amino-3-fluoropiperidin-1-yl)-3-(2H-tetrazol-5-yl)benzene-1,2-disulfonamide]	0.39	0.78	0.20	25.6	1.56	1.00	1.56	15	25.2	0.86	–
NS(=O)(=O)c1c(S(=O)(=O)N[C@@H]2CCNC2)ccc(N2CCOC(CO)C2)c1-c1nnn[nH]1 (stereo partly drawn) [Example 103, 4-[2-(hydroxymethyl)morpholin-4-yl]-N1-[(3R)-pyrrolidin-3-yl]-3-(1H-tetrazol-5-yl)benzene-1,2-disulfonamide]	3.13	6.25	3.13	0.59	3.13	2.00	1.56	0.68	3.46	0.42	–
NS(=O)(=O)c1c(S(=O)(=O)N[C@@H]2CCNC2)ccc(N2CCCC(CO)C2)c1-c1nnn[nH]1 (stereo partly drawn) [Example 107, 4-[3-(hydroxymethyl)piperidin-1-yl]-N1-[(3R)-pyrrolidin-3-yl]-3-(1H-tetrazol-5-yl)benzene-1,2-disulfonamide]	3.13	6.25	3.13	0.42	3.13	2.00	1.56	0.25	1.1	0.19	–

Reference: patent US11207312B2, “Metallo-beta-lactamase inhibitors and methods of use thereof” (priority 2017, dated 2021)
